According to patent US7772183B2 (Bristol-Myers Squibb Company, priority 2005, dated 2010):
Read-outs that look alike come from different tables or passages of the source.

Columns and labels:
[1] = molecular target: T1, porcine pancreatic elastase (PPE) (Sus scrofa, UniProt P00772); assay: Specificity assay, pancreatic elastase; type: biochemical; conditions: read-out: PPE activity in the specificity assays
T1 construct: purchased Sigma or EMDbiosciences
Protocol: The specificities of compounds of the present disclosure were determined against a variety of serine proteases: human neutrophil elastase (HNE), porcine pancreatic elastase (PPE) and human pancreatic chymotrypsin and one cysteine protease: human liver cathepsin B. In all cases, a 96-well plate format protocol using colorimetric p-nitroaniline (pNA) substrate or fluorometric Amino-Methyl-Coumarin (AMC) substrate, specific for each enzyme was used as described previously (PCT Patent Application No. WO 00/09543) with some modifications. All enzymes were purchased from Sigma or EMDbiosciences while the substrates were from Bachem.
Each pNA assay included a 2 h enzyme-inhibitor pre-incubation at room temperature followed by addition of substrate and hydrolysis to ˜15% conversion as measured on a Spectramax Pro microplate reader. The cathepsin B assay was initiated by adding substrate to a 10 min enzyme-inhibitor pre-incubation at room temperature, and the assay plate measured immediately using the Cytofluor Series 4000. Compound concentrations varied from 100 to 0.4 μM depending on their potency.
The final conditions for each assay were as follows: […]
The percentage of inhibition was calculated using the formula: [1−((UVinh−UVblank)/(UVctl−UVblank))]×100 […]

[2] = system: HCV replicon in HUH-7 cells; assay: HCV replicon FRET assay; type: cell-based, Hepatitis C virus (strain 1b); conditions: Hepatitis C virus
Method in brief: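 HUH-7 cells stably carrying a genotype 1b subgenomic HCV replicon (NS3–NS5B) treated with compound for 4 days at 37° C, 0.5% DMSO final. Cytotoxicity (CC50) read by alamar Blue; cells then lysed with 10 μM FRET HCV protease peptide substrate and kinetically read (340/490 nm) for EC50.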

T1 sequence (P00772 27-266): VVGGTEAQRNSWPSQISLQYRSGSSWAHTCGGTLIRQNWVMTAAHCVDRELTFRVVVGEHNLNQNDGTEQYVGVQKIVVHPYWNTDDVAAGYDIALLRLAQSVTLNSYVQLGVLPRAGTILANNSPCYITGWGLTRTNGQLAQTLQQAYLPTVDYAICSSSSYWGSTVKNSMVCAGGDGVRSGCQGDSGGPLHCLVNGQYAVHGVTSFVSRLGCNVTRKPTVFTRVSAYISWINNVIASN

Question: `CC(C)(C)OC(=O)N[C@H]1CCCCC/C=C\[C@@H]2C[C@@]2(C(=O)NS(=O)(=O)C2CC2)NC(=O)[C@@H]2C[C@@H](OC(=O)c3ccc(C#N)cc3)CN2C1=O` [Compound 26, 18-(4-cyanobenzoyloxy)-14-tert-butoxycarbonylamino-4-cyclopropylsulfonylaminocarbonyl-2,15-dioxo-3,16-diazatricyclo-[14.3.0.0^4,6]-nonadec-7-ene] was tested. Which IC50 [1] did it give?
Answer: > 100 µM

Question: What about the EC50 ([2]; 96 h, HUH-7 replicon cells, 4 days, read-out: EC50 in the replicon FRET assay) of the same compound?
Answer: 0.0073 µM

Question: And the EC50 ([2]; Huh-7, HCV replicon, for compounds tested, read-out: EC50 Range)?
Answer: < 0.1 µM
